Measurements reported in patent US9840478B2 (MERCK SHARP & DOHME CORP., priority 2013, dated 2017).

Tested on: HIV-1 (H9IIIB strain)
Assay: Cell-based HIV infection assay using a reporter (Cell-Based), MT4-GFP cells
Details: Human immunodeficiency virus 1, MT4-GFP cells infected with HIV-1 H9IIIB; 50% normal human serum; mean of at least two independent experiments; read-out: Cell-based IP
Outline: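 MT4-GFP cells (HIV LTR-driven GFP) infected 24 h with HIV-1 H9IIIB at low MOI, then washed and plated with compounds in RPMI + 50% normal human serum, 0.4% DMSO final. Green cells counted at 24 and 48 h; R0 = 48 h/24 h ratio, inhibition normalized to DMSO and triple-drug control; IC50 from 4-parameter fit.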

Compound | IC50
COC(=O)N[C@H](C(=O)N[C@H]1CCCC[C@@H]1CC[C@H]1CNCCN1S(=O)(=O)c1ccccc1)[C@@H](c1ccc(Cl)cc1)C1CCOCC1 [Example 355, methyl ((1R,2S)-1-(4-chlorophenyl)-3-oxo-3-(((1S,2R)-2-(2-((S)-1-(phenylsulfonyl)piperazin-2-yl)ethyl)cyclohexyl)amino)-1-(tetrahydro-2H-pyran-4-yl)propan-2-yl)carbamate] | 14 nM
COC(=O)N[C@H](C(=O)Nc1cccc(F)c1CC[C@H]1CNC[C@@H](C)N1S(=O)(=O)C1CC1)[C@@H](c1ccc(Cl)cc1)c1ccc(OC)nc1 [Example 153, (βS)-4-chloro-N-(2-{2-[(2S,6R)-1-(cyclopropylsulfonyl)-6-methylpiperazin-2-yl]ethyl}-3-fluorophenyl)-Nα-(methoxycarbonyl)-β-(6-methoxypyridin-3-yl)-L-phenylalaninamide] | 28 nM
CC(C)[C@H](c1ccc(Cl)cc1)[C@H](N)C(=O)Nc1cccc(F)c1CC[C@H]1CNC[C@@H](C)N1S(=O)(=O)C1CC1 [Example 128, (βR)-4-chloro-N-(2-{2-[(2S,6R)-1-(cyclopropylsulfonyl)-6-methylpiperazin-2-yl]ethyl}-3-fluorophenyl)-β-(1-methylethyl)-L-phenylalaninamide] | 610 nM
CC(C)[C@H](c1ccc(Cl)cc1)[C@H](N)C(=O)Nc1cccc(F)c1CC[C@H]1CNC[C@H](C)N1S(=O)(=O)c1ccccc1Cl [Example 271, (βR)-4-chloro-N-[2-(2-{(2S,6S)-1-[(2-chlorophenyl)sulfonyl]-6-methylpiperazin-2-yl}ethyl)-3-fluorophenyl]-β-(1-methylethyl)-L-phenylalaninamide] | 1200 nM
C[C@H]1CNC[C@H](CCc2c(F)cccc2NC(=O)[C@@H](N)[C@@H](Cc2ccc(F)cc2)c2ccc(Cl)cc2)N1S(=O)(=O)c1ccccc1 [Example 193, (βS)-4-chloro-β-(4-fluorobenzyl)-N-(3-fluoro-2-{2-[(2S,6S)-6-methyl-1-(phenylsulfonyl)piperazin-2-yl]ethyl}phenyl)-L-phenylalaninamide] | 56 nM
COc1ccc(S(=O)(=O)N2[C@@H](CCc3c(F)cccc3NC(=O)[C@@H](N)[C@H](c3cccc(F)c3)c3cccc(Cl)c3)CNC[C@@H]2C)cc1 [Example 162, (βR)-3-chloro-N-[3-fluoro-2-(2-{(2S,6S)-1-[(4-methoxyphenyl)sulfonyl]-6-methylpiperazin-2-yl}ethyl)phenyl]-β-(3-fluorophenyl)-L-phenylalaninamide] | 22 nM
CC[C@@H]1CNC[C@H](CCc2c(F)cccc2NC(=O)[C@@H](N)[C@@H](c2ccc(F)cc2)c2cc(F)cc(F)c2)N1S(C)(=O)=O [Example 263, (βS)-β-(3,5-difluorophenyl)-N-(2-{2-[(2S,6R)-6-ethyl-1-(methylsulfonyl)piperazin-2-yl]ethyl}-3-fluorophenyl)-4-fluoro-L-phenylalaninamide] | 77 nM
N[C@H](C(=O)Nc1cncc(F)c1CC[C@H]1CNCCN1S(=O)(=O)c1ccccc1)[C@@H](c1ccc(Cl)cc1)c1cc(F)cc(F)c1 [Example 46, (βS)-4-chloro-β-(3,5-difluorophenyl)-N-(5-fluoro-4-{2-[(2S)-1-(phenylsulfonyl)piperazin-2-yl]ethyl}pyridin-3-yl)-L-phenylalaninamide] | 12 nM
CC(C)[C@H](c1ccc(Cl)cc1)[C@H](N)C(=O)Nc1cncc(F)c1CC[C@H]1CNC[C@H](C)N1S(=O)(=O)c1ccccc1 [Example 126, (βR)-4-chloro-N-(5-fluoro-4-{2-[(2S,6S)-6-methyl-1-(phenylsulfonyl)piperazin-2-yl]ethyl}pyridin-3-yl)-β-(1-methylethyl)-L-phenylalaninamide] | 16 nM
O=C(CC1CC1)N[C@H](C(=O)Nc1cncc(F)c1CC[C@H]1CNCCN1S(=O)(=O)N1CCCC1)[C@@H](c1ccc(F)cc1)c1cc(F)cc(F)c1 [Example 87] | 16 nM
